pIC50: −log10 of the molar value. Read-outs that look alike come from different tables or passages of the source.
Experiments:
Type in all cases: cell-based, human
SMN2 mRNA = assay: RT-qPCR splicing assay panel, SMN2 canonical junction (CJ) mRNA; conditions: canonical junction (CJ) mRNA, RT-qPCR panel, Table 4A, read-out: SMN2, decrease in CJ mRNA levels, IC50
How it was run: (§1)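 A673 (DMEM/10% FBS) or K562 (IMDM/10% FBS) cells treated 24 h at 37 °C with 11-point 3-fold dilutions, top 10 uM final, DMSO ≤0.25%. Lysates read by one-step RT-qPCR for CJ and AJ isoforms, normalized to GAPDH, GUSB or PPIA. ΔΔCt vs DMSO gives RQ via 2^(-ΔΔCt).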

HTT mRNA = assay: RT-qPCR splicing assay, HTT canonical (CJ) and alternative (AJ) junction mRNA; conditions: for AC50: read-out: HTT AJ (AC50, increase in AJ mRNA)
How it was run: as §1

Target C mRNA = assay: RT-qPCR splicing assay panel, Target C canonical junction (CJ) mRNA; conditions: canonical junction (CJ) mRNA, RT-qPCR panel, Table 4A, read-out: Target C, decrease in CJ mRNA levels, IC50
How it was run: as §1

MYB mRNA = assay: RT-qPCR splicing assay, MYB canonical (CJ) and alternative (AJ) junction mRNA; conditions: for AC50: read-out: MYB AJ (AC50, increase in AJ mRNA)
How it was run: as §1

[1] = Homo sapiens, 24 h, Table 3A, A673 or K562 cells, 24 h treatment
[2] = Homo sapiens, 24 h, Table 3A, A673 or K562 cells, 24 h treatment, read-out: HTT CJ (IC50, decrease in CJ mRNA)
[3] = Homo sapiens, canonical junction (CJ) mRNA, RT-qPCR panel, Table 4A, read-out: HTT, decrease in CJ mRNA levels, IC50
[4] = Homo sapiens, 24 h, Table 3A, A673 or K562 cells, 24 h treatment, read-out: MYB CJ (IC50, decrease in CJ mRNA)
[5] = Homo sapiens, canonical junction (CJ) mRNA, RT-qPCR panel, Table 4A, read-out: MYB, decrease in CJ mRNA levels, IC50
[6] = Table 3A, A673 or K562 cells, 24 h treatment

Row | SMILES | pIC50 (SMN2 mRNA; Homo sapiens) | AC50 (HTT mRNA; [1]) | pIC50 (HTT mRNA; [2]) | pIC50 (HTT mRNA; [3]) | pIC50 (Target C mRNA; Homo sapiens) | AC50 (MYB mRNA; [1]) | pIC50 (MYB mRNA; [4]) | pIC50 (MYB mRNA; [5]) | pIC50 (SMN2 mRNA) | AC50 (HTT mRNA; [6]) | pIC50 (HTT mRNA; Table 3A, A673 or K562 cells, 24 h treatment, read-out: HTT CJ (IC50, decrease in CJ mRNA)) | pIC50 (HTT mRNA; canonical junction (CJ) mRNA, RT-qPCR panel, Table 4A, read-out: HTT, decrease in CJ mRNA levels, IC50) | pIC50 (Target C mRNA) | AC50 (MYB mRNA; [6]) | pIC50 (MYB mRNA; Table 3A, A673 or K562 cells, 24 h treatment, read-out: MYB CJ (IC50, decrease in CJ mRNA)) | pIC50 (MYB mRNA; canonical junction (CJ) mRNA, RT-qPCR panel, Table 4A, read-out: MYB, decrease in CJ mRNA levels, IC50)
1 | Cc1nnc(-c2cc(O)c(-c3ccc(N4CC[C@@H](NC5CCC5)C4)nn3)cc2F)s1 [Compound 359] | 6.00 to 7.00 | 1000 to 10000 nM | 6.00 to 7.00 | 6.00 to 7.00 | 5.00 to 6.00 | 1000 to 10000 nM | 5.00 to 6.00 | 5.00 to 6.00 |  |  |  |  |  |  |  | 
2 | Oc1cc(-c2cn[nH]c2)ccc1-c1ccc(N2CCC(NC3CC3)C2)nn1 (stereo not drawn) [Compound 100, 2-(6-(3-(cyclopropylamino)pyrrolidin-1-yl)pyridazin-3-yl)-5-(1H-pyrazol-4-yl)phenol] |  |  |  |  |  |  |  |  | > 7.00 | < 100 nM | > 7.00 | > 7.00 | > 7.00 | 100 to 1000 nM | 6.00 to 7.00 | 6.00 to 7.00
3 | Cc1ncc(-c2cc(O)c(-c3ccc(N4CC[C@@H](N(C)C(C)(C)C)C4)nn3)cc2F)s1 [Compound 339, 2-{6-[(3R)-3-[tert-butyl(methyl)amino]pyrrolidin-1-yl]pyridazin-3-yl}-4-fluoro-5-(2-methyl-1,3-thiazol-5-yl)phenol] | > 7.00 | < 100 nM | > 7.00 | > 7.00 | > 7.00 | < 100 nM | > 7.00 | > 7.00 |  |  |  |  |  |  |  | 
4 | COc1cc(-c2ccc(-c3ccc(N4CC[C@H](N(CCF)C5CCC5)C4)nn3)c(O)c2)cnn1 [Compound 303] | 6.00 to 7.00 | 100 to 1000 nM | 6.00 to 7.00 | 6.00 to 7.00 | < 5.00 | > 10000 nM | < 5.00 | < 5.00 |  |  |  |  |  |  |  | 
5 | COc1nc(-c2ccc(N3CCC(NC(C)(C)C)C3)nn2)ccc1-c1cnc(C)s1 (stereo not drawn) [Compound 355] | > 7.00 | < 100 nM | > 7.00 | > 7.00 | > 7.00 | 100 to 1000 nM | 6.00 to 7.00 | 6.00 to 7.00 |  |  |  |  |  |  |  | 
6 | COc1cc(-c2ccc(-c3ccc(N4CC[C@@H](NC5(C)CCC5)C4)nn3)c(O)c2)ncn1 [Compound 383, 5-(6-methoxypyrimidin-4-yl)-2-{6-[(3R)-3-[(1-methylcyclobutyl)amino]pyrrolidin-1-yl]pyridazin-3-yl}phenol] | > 7.00 | < 100 nM | > 7.00 | > 7.00 | > 7.00 | 100 to 1000 nM | 6.00 to 7.00 | 6.00 to 7.00 |  |  |  |  |  |  |  | 
7 | Cc1ncc(-c2cc(O)c(-c3ccc(N4CC[C@@H](NC5CCC5)C4)nn3)cc2F)s1 [Compound 146, 2-{6-[(3R)-3-(cyclobutylamino)pyrrolidin-1-yl]pyridazin-3-yl}-4-fluoro-5-(2-methyl-1,3-thiazol-5-yl)phenol] | > 7.00 | < 100 nM | > 7.00 | > 7.00 | > 7.00 | < 100 nM | > 7.00 | > 7.00 |  |  |  |  |  |  |  | 
8 | O=c1cc(-c2cc(O)c(-c3ccc(N4CC[C@H](NC5CCC5)C4)nn3)cc2F)cc[nH]1 [Compound 221] | > 7.00 | 100 to 1000 nM | 6.00 to 7.00 | 6.00 to 7.00 | 5.00 to 6.00 | 1000 to 10000 nM | 6.00 to 7.00 | 6.00 to 7.00 |  |  |  |  |  |  |  | 
9 | Cn1cc2cc(-c3ccc(-c4ccc(N5CCC(NC6CCC6)C5)nn4)c(O)c3)ncc2n1 (stereo not drawn) [Compound 320] | > 7.00 | 100 to 1000 nM | 6.00 to 7.00 | 6.00 to 7.00 | 6.00 to 7.00 | 100 to 1000 nM | 6.00 to 7.00 | 6.00 to 7.00 |  |  |  |  |  |  |  | 
10 | COc1cc(-c2cc(O)c(-c3ccc(N4CC[C@@H](N[C@H]5C[C@H](F)C5)C4)nn3)cc2F)cnn1 [Compound 232] | > 7.00 | 100 to 1000 nM | > 7.00 | > 7.00 | 6.00 to 7.00 | 100 to 1000 nM | 6.00 to 7.00 | 6.00 to 7.00 |  |  |  |  |  |  |  | 
11 | COc1cc(-c2ccc(-c3ccc(N4CCC(NC5CC6(CCC6)C5)C4)nn3)c(O)c2)cnn1 (stereo not drawn) [Compound 353, 5-(6-methoxypyridazin-4-yl)-2-[6-(3-{spiro[3.3]heptan-2-ylamino}pyrrolidin-1-yl)pyridazin-3-yl]phenol] | > 7.00 | 100 to 1000 nM | 6.00 to 7.00 | 6.00 to 7.00 | 6.00 to 7.00 | 1000 to 10000 nM | 5.00 to 6.00 | 5.00 to 6.00 |  |  |  |  |  |  |  | 
12 | Cc1nc(-c2cc(O)c(-c3ccc(N4CCC(NC5CCC5)C4)nn3)cc2F)cs1 (stereo not drawn) [Compound 398] | 5.00 to 6.00 | 1000 to 10000 nM | 5.00 to 6.00 | 5.00 to 6.00 | 5.00 to 6.00 | 1000 to 10000 nM | 5.00 to 6.00 | 5.00 to 6.00 |  |  |  |  |  |  |  | 
13 | COc1cc(-c2ccc(-c3ccc(N4CC[C@@H](NC5(C)CCC5)C4)nn3)c(O)c2)cnn1 [Compound 287, (R)-5-(6-methoxypyridazin-4-yl)-2-(6-(3-((1-methylcyclobutyl)amino)pyrrolidin-1-yl)pyridazin-3-yl)phenol] | > 7.00 | < 100 nM | > 7.00 | > 7.00 | > 7.00 | < 100 nM | > 7.00 | > 7.00 |  |  |  |  |  |  |  | 
14 | CNc1cc(-c2ccc(-c3ccc(N4CCC(NCC5CC5)C4)nn3)c(O)c2)ncn1 (stereo not drawn) [Compound 434] | > 7.00 | < 100 nM | > 7.00 | > 7.00 | 6.00 to 7.00 | 100 to 1000 nM | 6.00 to 7.00 | 6.00 to 7.00 |  |  |  |  |  |  |  | 
15 | Cc1ccc(-c2ccc(-c3ccc(N4CC[C@H](NC5CCC5)C4)nn3)c(O)c2)cn1 [Compound 281] | > 7.00 | 100 to 1000 nM | 6.00 to 7.00 | 6.00 to 7.00 | 5.00 to 6.00 | 1000 to 10000 nM | 5.00 to 6.00 | 5.00 to 6.00 |  |  |  |  |  |  |  | 
